Read-outs that look alike come from different tables or passages of the source.
Legend:
Assay type in all cases: in vivo
[1] = test system: cat flea (Ctenocephalides felis); test: whole plant or invertebrate; settings: Ctenocephalides felis
Procedure, shortened: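 Adult C. felis (3-7 days post-emergence; 15 per flask, at least 4 replicates) exposed to a glass flask base dried 24 h after coating with compound in acetone at 1.26 μg/cm^2. Held at 25±1 °C, 75±5% humidity; mortality (immobile or unable to right) scored at 8, 24 and/or 48 h as percentage.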

[2] = test system: Brown Dog Tick (Rhipicephalus sanguineus); test: Rapid screening protocol for topical application on brown dog ticks; settings: for R. sanguineus Mortality (%) 48 h: Laboratory 2 F data
Method: d) Rapid Screening Protocol for Topical Application on Brown Dog Ticks (Rhipicephalus sanguineus)
The aim of the test was to determine the presence of significant acaricidal activity in sample compounds or formulations when applied topically on brown dog ticks. A tick was defined as dead if it gave no apparent response when touched lightly and observed for 1 minute. […] Both permethrin and fipronil were employed as reference compounds. The insect species tested was the Brown Dog Tick (Rhipicephalus sanguineus). Mixed sex adult ticks were used for tests. The strain used was cultured by von Berky Veterinary Services, Woody Point, QLD, AU and supplied as unfed adult ticks (mixed sex). Ticks were maintained in controlled conditions (temp. 18°+2° C., humidity 75±5% RH).
Temperature was maintained at 25±1° C. and the humidity was ambient. […] Ticks were each treated on the abdomen with 1 μL of a single dose level of test sample in acetone; ten ticks were treated with solvent only (acetone) in each test. Tests were replicated 4 times (total of 40 ticks treated). […]

[3] = test system: Haemonchus contortus; test: Haemonchus contortus larvacidal (larval development) assay; settings: 144 h, read-out: Haemonchus contortus LD99
Procedure, shortened: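 Nematode eggs placed on agar containing compound (12 two-fold dilutions, final 0.024–50 μg/ml) and left 6 days to develop to L3. LD99 is the lowest concentration inhibiting development of 99% of larvae, derived from well titre (2^n−1) and top concentration.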

[4] = test system: cat flea (Ctenocephalides felis); test: Ctenocephalides felis adulticide assay: dose response (LC50); settings: Laboratory 1 C data
Excerpt: c) Ctenocephalides felis Adulticide Assay: C. felis Dose Response
The purpose of this example was to determine the LC50 when cat fleas were contacted with a glass surface treated with sample compounds or formulations prepared as described above. Mortality of fleas was defined as follows: fleas were considered dead if they didn't move or were on their sides and unable to walk or right themselves. LC50: Lethal Concentration 50—concentration of glass surface treatment at which 50% of the cat fleas were killed. The test species was the cat flea (Ctenocephalides felis). The strain used was obtained from external suppliers as pupae and held in the laboratory under testing conditions until the adults had emerged. Fifteen (15) fleas were used in a minimum of four replicates for each dose level (total of 60 fleas per dose level). The insects were selected to be in the adult life stage, aged between 3 and 7 days post emergence.
The compounds to be tested were dissolved in acetone just prior to testing. Samples of compounds were stored in a refrigerator (5±1° C.) unless otherwise specified. During the mortality testing, the temperature was maintained at 25+1° C. Humidity was maintained at 75±5%. The base (area=159 mm^2) of a 100 mL glass Erlenmeyer (conical) flask provided the treatment surface. Flasks were pretreated with Coatasil™ glass treatment to maximise bio-availability of test compounds by preventing them from binding to the glass surface.
Six dose levels (concentrations) of test sample, in the form of a serial dilution, were derived from a pilot study and covered a range that produced very low to very high mortality. The base of the 100 mL Erlenmeyer flask was treated with 0.5 mL of test sample in acetone and gently swirled. This volume was sufficient to cover the base of the flask. Flasks were left to dry for 24 hours before flea exposure. Adult cat fleas were lightly anaesthetised by cooling and then placed into a sorting chamber, which allowed fleas to revive and jump into the Erlenmeyer flasks. Fifteen (15)adult cat fleas were collected in each flask. The top of the flasks were then covered in Parafilm™ and small holes made to allow gas exchange. A 0.5 mL volume of acetone was applied to the base of an Erlenmeyer flask and the testing proceeded in the same manner described above. Cat fleas in the treatment containers were held under testing conditions for 24 hours. Mortality resulting from the treatments was recorded at 8 and 24 hours.

[5] = 8 h, read-out: C. felis Mortality (%) 8 h, 8 h, Laboratory 2 B data
[6] = 24 h, read-out: C. felis Mortality (%) 24 h, 24 h, Laboratory 2 B data
[7] = 8 h, read-out: C. felis Mortality (%) 8 h, 8 h, Laboratory 1 A data
[8] = 24 h, read-out: C. felis Mortality (%) 24 h, 24 h, Laboratory 1 A data

Compound	mortality at 1.26 µg/cm2, 1.26 µg/cm2 [1, 5]	mortality at 1.26 µg/cm2, 1.26 µg/cm2 [1, 6]	R. sanguineus Mortality (%) 48 h [2]	IC99 [3]	C. felis LC50 [4]	other results
CCC/C(=N\OC1CCCC1)c1cc(Cl)ccc1NS(=O)(=O)C(F)(F)F [Compound 195]	33%	100%	97%	–	–	–
CCO/N=C(/c1cc(Cl)ccc1NS(=O)(=O)C(F)(F)F)C1CCCCC1 [Compound 213]	53%	100%	90%	–	–	–
C/C(=N\OCC1CCCO1)c1cc(Cl)ccc1NS(=O)(=O)C(F)(F)F (stereo not drawn) [Compound 203]	98%	98%	95%	–	–	–
CC(=O)N(c1ccc(Cl)cc1/C(C)=N/Oc1ccc(F)cc1)S(=O)(=O)C(F)(F)F [Compound 308]	–	–	–	–	–	mortality at 1.26 µg/cm2 ([1]; 8 h, read-out: Ctenocephalides felis Mortality (%) 8 h): 29%; mortality at 1.26 µg/cm2 ([1]; 24 h, read-out: Ctenocephalides felis Mortality (%) 24 h): 100%; Rhipicephalus sanguineus Mortality (%) 24 h ([2]; 24 h, topical, 10 μg of active per tick in 1 μL acetone, adult ticks, Laboratory 1 E data): 7%
CC/C(=N\OC(C)c1ccc(Cl)cc1)c1cc(Cl)ccc1NS(=O)(=O)C(F)(F)F (stereo not drawn) [Compound 257]	5%	96%	–	–	–	mortality at 5 µg/tick ([2]; Rhipicephalus sanguineus, topical, 24 h, read-out: R. sanguineus Mortality (%) 24 h): 40%
CC/C(=N\OCC1CCCC1)c1cc(Cl)ccc1NS(=O)(=O)C(F)(F)F [Compound 197]	80%	97%	100%	–	–	–
C/C(=N\OCc1ccc(C(F)(F)F)cc1)c1ccc(C(F)(F)F)cc1NS(=O)(=O)C(F)(F)F [Compound 219]	69%	100%	60%	–	–	–
CC/C(=N\OCc1ccc(Cl)cc1Cl)c1cc(Cl)ccc1NS(=O)(=O)C(F)(F)F [Compound 74]	–	–	–	0.4 µg/mL	0.2 μg/cm^2	mortality at 1.26 µg/cm2, 1.26 µg/cm2 [1, 7]: 94%
C/C(=N\OCc1cccnc1)c1cc(Cl)ccc1NS(=O)(=O)C(F)(F)F [Compound 188]	98%	98%	40%	–	–	–
CC(C)(C)/C(=N\Oc1ccc(F)cc1)c1cc(Cl)ccc1NS(=O)(=O)C(F)(F)F [Compound 198, N-{4-chloro-2-[1-(4-fluorophenoxyimino)2,2-dimethylpropyl]phenyl}trifluoromethanesulfonamide]	16%	92%	35%	–	–	–
CC/C(=N\Oc1cccc(Cl)c1)c1cc(Cl)ccc1NS(=O)(=O)C(F)(F)F [Compound 131]	–	–	–	1.6 µg/mL	0.7 μg/cm^2	mortality at 1.26 µg/cm2, 1.26 µg/cm2 [1, 8]: 100%
CC/C(=N\OCc1ccccc1Cl)c1cc(Cl)ccc1NS(=O)(=O)C(F)(F)F [Compound 10]	–	–	–	2.7 µg/mL	0.3 μg/cm^2	mortality at 1.26 µg/cm2, 1.26 µg/cm2 [1, 7]: 56%; mortality at 1.26 µg/cm2, 1.26 µg/cm2 [1, 8]: 73%
CC/C(=N\OCc1ccc(Cl)c(Cl)c1)c1cc(Cl)ccc1NS(=O)(=O)C(F)(F)F [Compound 79]	–	–	–	0.6 µg/mL	0.6 μg/cm^2	mortality at 1.26 µg/cm2, 1.26 µg/cm2 [1, 7]: 73%; mortality at 1.26 µg/cm2, 1.26 µg/cm2 [1, 8]: 100%
CC/C(=N\OCc1cccc(Cl)c1Cl)c1cc(Cl)ccc1NS(=O)(=O)C(F)(F)F [Compound 72]	–	–	–	0.3 µg/mL	0.5 μg/cm^2	mortality at 1.26 µg/cm2, 1.26 µg/cm2 [1, 7]: 13%; mortality at 1.26 µg/cm2, 1.26 µg/cm2 [1, 8]: 63%

— patent publication US7312248B2, “Control of parasites in animals by the use of novel trifluoromethanesulfonanilide oxime ether derivatives” (Schering-Plough Animal Health Corporation, priority 2004, dated 2007)
